Measured values as given in patent publication US11083725B2 (priority 2014, dated 2021).
pIC50: −log10 of the molar value. “Also recorded” adds a separate entry of the source. Read-outs that look alike come from different tables or passages of the source.

Assays:
NHBE cells = experiment: cells; type: cell-based, human
CA09 [1] = experiment: High-throughput modified TCID50 viral titer of drug-screen supernatant on MDCK cells (area under the curve); type: cell-based, influenza virus H1N1 strain A/CA/04/2009; details: supernatant of CA09-infected NHBE cells titrated on MDCK cells
CA09 [2] = experiment: microbe, parasite or virus in culture; type: cell-based, influenza virus H1N1 strain A/CA/04/2009; parameters: TCID50 (per mL): unit not given here; details: for log reduction at 10 pM / log reduction at 0.0001 µM / log reduction at 0.001 µM / log reduction at 0.01 µM / log reduction at 0.1 µM / log reduction at 1 µM / log reduction at 10 µM / log reduction at 100 µM: NHBE, read-out: TCID50 (per mL)
CA09 [3] = experiment: In vivo drug tests in CA09-infected mice: weight loss, survival, lung viral titer; parameters: species or system C57/B6 mice; details: mice infected intranasally with CA09; for weight loss: daily drug for 7 days from 2 days before infection (NVP-BEZ235 25 mg/kg oral gavage; clotrimazole 120 mg/kg ip; α-mangostin 8 mg/kg ip); for survival: daily drug for 7 days from 2 days before infection, monitored 15 days
BMDCs = experiment: Isotopically labeled substrate utilization in bone marrow-derived dendritic cells; type: cell-based, mouse
[4] = follow up validation titer, therapeutic treatment
[5] = Therapeutic Drug Treatment, Drug Dose 10 pM, […]
[6] = Therapeutic Drug Treatment, Drug Dose 100 pM, […]
[7] = Therapeutic Drug Treatment, Drug Dose 1 nM, […]
[8] = Therapeutic Drug Treatment, Drug Dose 10 nM, […]
[9] = Therapeutic Drug Treatment, Drug Dose 100 nM, […]
[10] = Therapeutic Drug Treatment, Drug Dose 1 μM, […]
[11] = Therapeutic Drug Treatment, Drug Dose 10 μM, […]
[12] = Therapeutic Drug Treatment, Drug Dose 100 μM, […]
[13] = Homo sapiens, NHBE, read-out: IC50, Prophylactic Treatment, Viral Infected
[14] = Homo sapiens, NHBE, 72 h, read-out: IC50, Therapeutic Treatment, Control
[15] = Homo sapiens, NHBE, 72 h, read-out: IC50, Prophylactic Treatment, Control

| Compound | log reduction at 10 pM (CA09 [2]) | log reduction at 0.0001 µM (CA09 [2]) | log reduction at 0.001 µM (CA09 [2]) | log reduction at 0.01 µM (CA09 [2]) | log reduction at 0.1 µM (CA09 [2]) | log reduction at 1 µM (CA09 [2]) | log reduction at 10 µM (CA09 [2]) | log reduction at 100 µM (CA09 [2]) | Cell Death Prophylactic (NHBE cells) | further results |
| --- | --- | --- | --- | --- | --- | --- | --- | --- | --- | --- |
| O=CC[C@@H](O)[C@H](O)[C@H](O)CO [2-deoxyglucose] | 0.94 | 0.35 | 0.48 | 0.43 | 0.28 | 0.87 | 1.01 | 0.85 | – | NHBE cell survival / cell death after infection (NHBE cells): preferentially killed infected cells; viral titers in the high-throughput screening (CA09 [1]): reduced; viral titer following therapeutic treatment (CA09 [2]; FIG. 12B, NHBE supernatant titered on MDCK cells): efficient at reducing viral load; Viral Titer Therapeutic (CA09 [2]; [4]): Reduced |
| CC(C)CCN1c2nc(Nc3cc(F)c(O)c(F)c3)ncc2N(C)C(=O)C1C (centres unmarked) [BI-D1870] | 0.28 | 1.18 | 0.78 | 0.2 | 0.99 | 0.84 | 0.6 | 0.65 | C > V | Viral Titer Prophylactic (CA09 [2]): Reduced |
| [O]=[V]1(=[O])(=[O])(=[O])[n+]2cccc3ccc4ccc[n+]1c4c32 [BP/(PHEN)] | – | – | – | – | – | – | – | – | V > C | TCID50 (per mL) (CA09 [2]; [5]): −0.50; TCID50 (per mL) (CA09 [2]; [6]): −0.54; TCID50 (per mL) (CA09 [2]; [7]): −0.44; TCID50 (per mL) (CA09 [2]; [8]): −0.74; TCID50 (per mL) (CA09 [2]; [9]): −0.13; TCID50 (per mL) (CA09 [2]; [10]): −0.32; TCID50 (per mL) (CA09 [2]; [11]): −0.10; TCID50 (per mL) (CA09 [2]; [12]): −0.18 |
| O=C(Nc1cccc(Nc2ncc(Br)c(NCCc3cnc[nH]3)n2)c1)N1CCCC1 [BX-912] | – | – | – | – | – | – | – | – | – | viral titers in the high-throughput screening (CA09 [1]): reduced; Viral Titer Therapeutic (CA09 [2]; [4]): Reduced |
| C=C(C)[C@@H]1CC[C@]2(C(=O)O)CC[C@]3(C)[C@H](CC[C@@H]4[C@@]5(C)CC[C@H](O)C(C)(C)[C@@H]5CC[C@]43C)[C@@H]12 [Betulinic Acid] | 0.37 | 0.63 | 0.51 | 0.55 | 0.31 | 0.96 | 0.61 | 0.59 | – | pIC50 (NHBE cells; [13]): 5.70 |
| Clc1ccccc1C(c1ccccc1)(c1ccccc1)n1ccnc1 [Clotrimazole] | 0.71 | 0.85 | 0.84 | 0.7 | 0.48 | 0.95 | 0.9 | 1.07 | C > V | NHBE cell survival / cell death after infection (NHBE cells): differentially affected; also recorded: differential effects; Viral Titer Prophylactic (CA09 [2]): Reduced; viral titers in NHBE cells (validated drug hits) (CA09 [2]): consistently reduced; also recorded: consistent reduction; weight loss (CA09 [3]): little effect; survival (CA09 [3]): little effect |
| CCc1c(-c2ccccc2)c(-c2ccccc2)nn1-c1ccccc1-c1cccc(OCC(=O)O)c1 [FABP4 Inhibitor] | – | – | – | – | – | – | – | – | V > C | pIC50 (NHBE cells; [14]): 5.40; Viral Titer Prophylactic (CA09 [2]): Reduced |
| O=C1Nc2ccc3ncsc3c2/C1=C/c1cnc[nH]1 [Imidazolo-oxindole C 16] | – | – | – | – | – | – | – | – | – | Cell Death Therapeutic (NHBE cells): V > C; viral titers in the high-throughput screening (CA09 [1]): reduced |
| NC(=O)N1CCC(CC(=O)N2CCC([C@H]3c4ncc(Br)cc4CCc4cc(Cl)cc(Br)c43)CC2)CC1 [Lonafarnib] | 0.04 | 0.15 | 0.56 | -0.06 | 0.3 | 1.16 | 0.28 | 1.25 | C > V | pIC50 (NHBE cells; [15]): 5.72; pIC50 (NHBE cells; [13]): 5.89 |
| Nc1cc(C(F)(F)F)c(-c2cc(N3CCOCC3)nc(N3CCOCC3)n2)cn1 [NVP-BKM120] | 0 | 0.4 | 0.76 | 0 | 0.29 | -0.08 | 0.07 | -0.37 | C = V | Cell Death Therapeutic (NHBE cells): C = V; NHBE cell survival / cell death after infection (NHBE cells): no effect |
| CC[C@@H]1/C=C/C=C/C[C@H](C)[C@@H](O)[C@](C)(O)C(=O)[C@H](C)[C@@H](O)[C@H](C)C(=O)[C@H](C)[C@@H](O)[C@H](C)/C=C/C(=O)O[C@H]2[C@@H](C)[C@@H](CC1)O[C@@]1(CC[C@@H](C)C(CC(C)O)O1)[C@@H]2C (some centres unmarked) [Oligomycin A] | 0.92 | 0.23 | 0.51 | 0.6 | 0.38 | 0.77 | 0.66 | 0.28 | C > V | Cell Death Therapeutic (NHBE cells): C > V; Viral Titer Therapeutic (CA09 [2]): Reduced |
| CCc1ccc(CCOc2ccc(CC3SC(=O)NC3=O)cc2)nc1 (centres unmarked) [Pioglitazone] | 0.22 | 0.8 | 0.66 | 0.47 | -0.1 | 0.49 | 0.73 | 0.23 | C > V | – |
| C=C(C)[C@H]1Cc2c(ccc3c2O[C@@H]2COc4cc(OC)c(OC)cc4[C@@H]2C3=O)O1 [Rotenone] | – | – | – | – | – | – | – | – | C > V | Cell Death Therapeutic (NHBE cells): C > V; log reduction at 10 pM (CA09 [2]; [5]): 0.09; log reduction at 0.0001 µM (CA09 [2]; [6]): 0.15; log reduction at 0.001 µM (CA09 [2]; [7]): 0.9; log reduction at 0.01 µM (CA09 [2]; [8]): 0.04; log reduction at 0.1 µM (CA09 [2]; [9]): 0.07; log reduction at 1 µM (CA09 [2]; [10]): 0.5; log reduction at 10 µM (CA09 [2]; [11]): 1.14; log reduction at 100 µM (CA09 [2]; [12]): -0.05 |
| CCC(C)(C)C(=O)O[C@H]1C[C@@H](C)C=C2C=C[C@H](C)[C@H](CC[C@@H]3C[C@@H](O)CC(=O)O3)[C@H]21 [SIMVASTATIN] | – | – | – | – | – | – | – | – | – | pIC50 (NHBE cells; Homo sapiens, NHBE, 72 h, […], therapeutic schedule, dose response 4 nM to 10 μM, […], read-out: IC50, Therapeutic Treatment, Control): 8.30 |
| CCCCCCCCCCCCCCOc1ccc(C(=O)O)o1 [TOFA] | – | – | – | – | – | – | – | – | – | pIC50 (NHBE cells; […], prophylactic schedule, dose response 4 nM to 10 μM, […], read-out: IC50, Prophylactic Treatment, Control): 5.40 |
| Cn1cncc1[C@@](N)(c1ccc(Cl)cc1)c1ccc2c(c1)c(-c1cccc(Cl)c1)cc(=O)n2C [Tipifarnib] | 0.02 | 0.73 | 1.04 | 0.6 | -0.16 | 1.04 | 1.4 | 0 | – | pIC50 (NHBE cells; [15]): 7.92; pIC50 (NHBE cells; [14]): 7.89; pIC50 (NHBE cells; Homo sapiens, NHBE, read-out: IC50, Therapeutic Treatment, Viral Infected): 7.48 |
| COc1c(O)cc2oc3cc(O)c(CC=C(C)C)c(O)c3c(=O)c2c1CC=C(C)C [α-Mangostin] | – | – | – | – | – | – | – | – | C > V | Cell Death Therapeutic (NHBE cells): C > V; NHBE cell survival / cell death after infection (NHBE cells): differential effects; NHBE cell survival / cell death after infection (NHBE cells; listed as α-mangostin): differentially affected; viral titers in NHBE cells (validated drug hits) (CA09 [2]): consistent reduction; log reduction at 10 pM (CA09 [2]; Prophylactic Drug Treatment, Drug Dose 10 pM, […]): 0.74; log reduction at 0.0001 µM (CA09 [2]; Prophylactic Drug Treatment, Drug Dose 100 pM, […]): 0.69; log reduction at 0.001 µM (CA09 [2]; Prophylactic Drug Treatment, Drug Dose 1 nM, […]): 0.54; log reduction at 0.01 µM (CA09 [2]; Prophylactic Drug Treatment, Drug Dose 10 nM, […]): 0.65; log reduction at 0.1 µM (CA09 [2]; Prophylactic Drug Treatment, Drug Dose 100 nM, […]): 0.84; log reduction at 1 µM (CA09 [2]; Prophylactic Drug Treatment, Drug Dose 1 μM, […]): 0.71; log reduction at 10 µM (CA09 [2]; Prophylactic Drug Treatment, Drug Dose 10 μM, […]): 1.2; log reduction at 100 µM (CA09 [2]; Prophylactic Drug Treatment, Drug Dose 100 μM, […]): 0.85; Viral Titer Prophylactic (CA09 [2]; […], prophylactic treatment): Reduced; viral titers in NHBE cells (validated drug hits) (CA09 [2]; listed as α-mangostin): consistently reduced; weight loss (CA09 [3]): little effect; survival (CA09 [3]): little effect |
| LB 42708 | – | – | – | – | – | – | – | – | – | pIC50 (NHBE cells; […], therapeutic schedule, dose response 4 nM to 10 μM, […], read-out: IC50, Therapeutic Treatment, Control): 8.35 |
| OLIGOMYCIN (A SHOWN) | – | – | – | – | – | – | – | – | – | pIC50 (NHBE cells; read-out: IC50, Therapeutic Treatment, Control): 6.00; pIC50 (NHBE cells; read-out: IC50, Therapeutic Treatment, Viral Infected): 8.40 |
| PF 429242 | – | – | – | – | – | – | – | – | – | pIC50 (NHBE cells; […], dose response 4 nM to 10 μM, […], read-out: IC50, Prophylactic Treatment, Viral Infected): 5.22 |
| lipopolysaccharide [LPS] | – | – | – | – | – | – | – | – | – | glycolysis (radiolabeled metabolic substrate assay) (BMDCs): slight increase; other substrate use measures (radiolabeled metabolic substrate assays) (BMDCs): little effect |
